Results reported in patent US7759345B2, “Antitumoral derivatives of ET-743” (priority 2001, dated 2010).

Assays:
K-562 = experiment: Inhibition of cells growth by colorimetric assay (SRB), K-562; type: cell-based; conditions: K-562, SRB, 48 hours exposure
Summary of the method: (§1)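 48 h SRB cytotoxicity assay; compound range 10–10^−8 μg/ml; seeding 5×10^3 cells/well, 18 h pre-attachment; OD 490 nm; GI, TGI, LC from triplicate means ± SD.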

A-549 = experiment: Inhibition of cells growth by colorimetric assay (SRB), A-549; type: cell-based; conditions: A-549, SRB, 48 hours exposure
Summary of the method: as §1

SK-MEL-28 = experiment: Inhibition of cells growth by colorimetric assay (SRB), SK-MEL-28; type: cell-based; conditions: MEL-28, SRB, 48 hours exposure
Summary of the method: as §1

HT-29 = experiment: Inhibition of cells growth by colorimetric assay (SRB), HT-29; type: cell-based; conditions: HT-29, SRB, 48 hours exposure
Summary of the method: as §1

LoVo = experiment: Inhibition of cells growth by colorimetric assay (SRB), LoVo; type: cell-based; conditions: LOVO, SRB, 48 hours exposure
Summary of the method: as §1

LoVo-Dox = experiment: Inhibition of cells growth by colorimetric assay (SRB), LoVo-Dox; type: cell-based; conditions: LOVO-DOX, SRB, 48 hours exposure
Summary of the method: as §1

DU-145 = experiment: Inhibition of cells growth by colorimetric assay (SRB), DU-145; type: cell-based; conditions: DU-145, SRB, 48 hours exposure
Summary of the method: as §1

LNCaP = experiment: Inhibition of cells growth by colorimetric assay (SRB), LNCaP; type: cell-based; conditions: LNCAP, SRB, 48 hours exposure
Summary of the method: as §1

SK-BR-3 = experiment: Inhibition of cells growth by colorimetric assay (SRB), SK-BR-3; type: cell-based; conditions: SK-BR3, SRB, 48 hours exposure
Summary of the method: as §1

IGROV-1 = experiment: Inhibition of cells growth by colorimetric assay (SRB), IGROV-1; type: cell-based; conditions: IGROV, SRB, 48 hours exposure
Summary of the method: as §1

IGROV-ET = experiment: Inhibition of cells growth by colorimetric assay (SRB), IGROV-ET; type: cell-based; conditions: IGROV-ET, SRB, 48 hours exposure
Summary of the method: as §1

SK-OV-3 = experiment: Inhibition of cells growth by colorimetric assay (SRB), SK-OV-3; type: cell-based; conditions: SK-OV3, SRB, 48 hours exposure
Summary of the method: as §1

PANC-1 = experiment: Inhibition of cells growth by colorimetric assay (SRB), PANC-1; type: cell-based; conditions: PANC-1, SRB, 48 hours exposure
Summary of the method: as §1

HMEC1 = experiment: Inhibition of cells growth by colorimetric assay (SRB), HMEC1; type: cell-based; conditions: HMEC-1, SRB, 48 hours exposure
Summary of the method: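 Growth inhibition is measured by sulforhodamine B staining of TCA-fixed cells after 48 h of compound exposure across 10 to 10^−8 μg/ml. Cells are seeded at 5×10^3 per well and grown drug-free for 18 h beforehand; absorbance at 490 nm yields GI, TGI and LC values.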

Liver = experiment: In vitro toxicity, Liver
Excerpt: (§2) Toxicity was asssessed by the methods reported in Toxicology in Vitro, 15 (2001) 571-577, J. Luber Narod et al.: “Evaluation of the use of in vitro methodolodies as tools for screening new compounds for potential in vivo toxicity”.

Heart = experiment: In vitro toxicity, Heart
Excerpt: as §2

Myelo = experiment: In vitro toxicity, Myelo
Excerpt: as §2

Kidney = experiment: In vitro toxicity, Kidney
Excerpt: as §2

Skeletal = experiment: In vitro toxicity, Skeletal
Excerpt: as §2

## C=COC(=O)Oc1cc2c(cc1OC)[C@@]1(CS[C@@H]3c4c(OC(C)=O)c(C)c5c(c4[C@H](COC1=O)N1C3[C@H]3c4c(cc(C)c(OC)c4O)C[C@@H]([C@@H]1O)N3C)OCO5)NCC2 (some centres unmarked) [Compound 75]
K-562
  LC50 (50% lethal concentration): 4.16 nM
  TGI K-562: 7.42E-10
K-562; read-out: GI50 K-562
  GI50: 0.364 nM
A-549
  TGI A-549: 8.23E-09
A-549; read-out: GI50 A-549
  GI50: 4.26 nM
A-549; read-out: LC50 A-549
  LC50 (50% lethal concentration): 49 nM
SK-MEL-28
  LC50 (concentration killing 50% of cells): 11.7 nM
  TGI MEL-28: 4.82E-09
SK-MEL-28; read-out: GI50 MEL-28
  GI50: 2 nM
HT-29
  TGI HT-29: 1.18E-08
HT-29; read-out: GI50 HT-29
  GI50: 3.89 nM
HT-29; read-out: LC50 HT-29
  CC50: 120 nM
LoVo
  LC50 (concentration killing 50% of cells): 12 nM
  TGI LOVO: 4.82E-09
LoVo; read-out: GI50 LOVO
  GI50: 2.25 nM
LoVo-Dox
  TGI LOVO-DOX: 1.23E-07
LoVo-Dox; read-out: GI50 LOVO-DOX
  GI50: 42.6 nM
DU-145
  TGI DU-145: 9.47E-10
DU-145; read-out: GI50 DU-145
  GI50: 0.563 nM
DU-145; read-out: LC50 DU-145
  CC50: 8330 nM
LNCaP
  TGI LNCAP: 8.31E-10
LNCaP; read-out: GI50 LNCAP
  GI50: 0.579 nM
LNCaP; read-out: LC50 LNCAP
  CC50: 1.19 nM
SK-BR-3
  TGI SK-BR3: 3.21E-09
SK-BR-3; read-out: GI50 SK-BR3
  GI50: 1.2 nM
SK-BR-3; read-out: LC50 SK-BR3
  CC50: 8.58 nM
IGROV-1
  TGI IGROV: 1.63E-09
IGROV-1; read-out: GI50 IGROV
  GI50: 0.52 nM
IGROV-1; read-out: LC50 IGROV
  CC50: 10 nM
IGROV-ET
  TGI IGROV-ET: 6.58E-09
IGROV-ET; read-out: GI50 IGROV-ET
  GI50: 3.38 nM
IGROV-ET; read-out: LC50 IGROV-ET
  CC50: 12 nM
SK-OV-3
  TGI SK-OV3: 1.04E-08
SK-OV-3; read-out: GI50 SK-OV3
  GI50: 2.19 nM
PANC-1
  LC50 (concentration killing 50% of cells): 35.9 nM
  TGI PANC-1: 8.45E-09
PANC-1; read-out: GI50 PANC-1
  GI50: 3.04 nM
HMEC1
  TGI HMEC-1: 5.77E-08
HMEC1; read-out: GI50 HMEC-1
  GI50: 6.97 nM
Liver
  Toxicity Data Liver: 4.11E-08
Heart
  Toxicity Data Heart: 8.17E-08
Myelo
  Toxicity Data Myelo: 5.85E-08
Kidney
  Toxicity Data Kidney: 3.86E-08
Skeletal
  Toxicity Data Skeletal: 4.06E-09
